Experimental data: US20070117182A1, “Nucleic acids conferring transcriptional responsiveness on the RANKL gene promoter and uses thereof” (Wisconsin Alumni Research Foundation, priority 2005, published 2007)

How the values were obtained:
Cyp24 = assay: RT-PCR of Cyp24 control gene in treated ST2 cells; format: cell-based, mouse; details: up to 24 hours
Procedure: FIG. 2. Induction of RANKL in ST2 cells by hormones and cytokines. ST2 cells were treated with the agents indicated for periods up to 24 hours. Total RNA was isolated and subjected to RT-PCR using a primer set to mouse RANKL and beta-actin. Positive vitamin D target control genes include Cyp24 and osteopontin (OPN).
The inventors first established a model in which RANKL is both induced in response to 1,25(OH)2D3, PTH (forskolin) and oncostatin M (OSM), and is capable of supporting osteoclast formation when co-cultured with bone marrow monocyte- or spleen cell-derived osteoclast precursors. While a number of cell types express RANKL and induce osteoclastogenesis, the historical literature strongly supports mouse ST2 cells in this capacity, prompting the inventors to focus on this stromal/preosteoblastic line for initial studies. […] Each of these components is known to both induce RANKL expression and promote osteoclast formation as well. […] Indeed, GC effects are widely observed. […] The ability of GCs to enhance osteoclast formation in coculture assays in the presence of 1,25(OH)2D3, however, is likely due also to its coordinate ability to suppress OPG.

[1] = system: RANKL gene upstream regions D1-D5; assay: ChIP analysis of transcription factor binding to the RANKL gene in ST2 cells; format: cell-based, mouse; details: 6 hours
Procedure: FIG. 4. Confirmation of ChIP/chip data using ChIP. A) Linear arrangement of RANKL locus re-oriented 5′ to 3′ (left to right) indicating the positions of D5 to D1, P2, and P1/TSS. Designation of primer sets used for detection in ChIP is indicated. B) ST2 cells were treated with either vehicle or 1,25(OH)2D3 and then subjected to ChIP using antibodies to VDR, RXR or IgG. Precipitated DNA was evaluated using the primer sets identified in A.
FIG. 5. […] ST2 cells were treated with the above hormones and after 6 hours subjected to ChIP analysis using antibodies to VDR, RXR, GR, C/EBP, β, RNA pol II, and IgG. Precipitated DNA was evaluated for enrichment of the indicated regions of the RANKL gene.
FIG. 10. ChIP analysis of transcription factor binding to RL D5, the TSS and intervening regions of the RANKL locus in response to 1,25(OH)2D3, forskolin and oncostatin M (OSM). ST2 cells were treated for 6 hr with the indicated inducing agents and then subjected to ChIP analysis using antibodies to the indicated factors. Precipitated DNA was analyzed by PCR for enrichment of IS7, D5, IS6 and the TSS of the RANKL gene locus. See text for details of results.
The isolated DNA was then evaluated by PCR using primers as depicted in the diagram seen in FIG. 4a which were designed to amplify small DNA segments within the 5 regions as well as segments located at intervening sites (IS) outside the five regions.
The inventors hypothesized that GC's might perhaps enhance VDR binding to RANKL regulatory regions. […] The inventors focused on the RL-CCL region (D5) and amplified the precipitated DNA using primers to this region of the gene as well as to D4, D3 and TSS and intervening regions. […] The inventors also explored the possibility that C/EBPbeta might similarly participate in the RANKL activation process. C/EBPbeta plays a significant role in the regulation of osteoblastic genes, and is found associated with both 1,25(OH)2D3 and GC target genes.
In addition to 1,25(OH)2D3 and GCs, RANKL expression is also known to be modulated by such factors as PTH, PGE2, the gp130-activating cytokines IL-6 and OSM, as well as IL-1beta and TNFalpha. […] Forskolin was used as substitute for PTH, however, as ST2 cells are deficient in PTH receptor (PTHR). Both PTH/forskolin and PGE2 are known to induce RANKL gene expression via CREB whereas OSM functions via Stat3. […] The inventors therefore explored the possibility that the RL-CCL might represent a focal target for these inducers via either CREB or Stat3 in the RANKL gene locus. ST2 cells were treated with either vehicle, 1,25(OH)2D3, forskolin or OSM for a 6 hour period and then subjected to a ChIP analysis using antibodies to VDR, C/EBPbeta, CREB, phospho-CREB, ATF-2, ATF-4, Stat3, RNA pol II and control IgG. Isolated DNA was then subjected to amplification using primers corresponding to the D5 region (RL-CCL) of the RANKL gene. As controls, the inventors also assessed the extent to which the immunoprecipitations led to the enrichment of DNA at sites surrounding the D5 region of the RANKL gene.

[2] = system: D5 region of the human RANKL gene; assay: ChIP analysis of the D5 region of the human RANKL gene in MG-63 cells; format: cell-based
Procedure: FIG. 14. […] Cells were treated with the indicated inducers for the periods identified and isolated RNA subjected to PCR analysis for Cyp24, RANKL and b-actin. B) 1,25(OH)2D3 induces VDR binding to the conserved D5 region of the human RANKL gene in MG-63 cells. […] Two different primer sets to the human D5 region were used to assess VDR binding. VDR binding was also observed at D3-D1 but not in intervening regions or at the TSS. C) The human D5 region is transcriptionally active in MG-63 cells. […] Luciferase activity was analysed 24 hours later. […] Data are the average of triplicate determinations, SEM.
Input represents DNA abundance prior to precipitation with either antibodies to the VDR or non specific IgG.

**Q.** With `C=C1/C(=C\C=C2/CCC[C@]3(C)[C@@H]([C@H](C)CCCC(C)(C)O)CC[C@@H]23)C[C@@H](O)C[C@@H]1O` [1,25(OH)2D3] as the compound, how does the Cyp24 induction (Cyp24) read?
**A.** induced in a time-dependent manner

**Q.** What about the “CREB binding to the D5 region” value [1] of the same compound?
**A.** modestly increased CREB association

**Q.** And the “RNA pol II recruitment to D1-D5 sites and TSS” value [1]?
**A.** recruited

**Q.** And the “Stat3 binding to the D5 region” value [1]?
**A.** some Stat3 binding can be seen

**Q.** What about the “VDR and RXR binding at D1-D5” value ([1]; ChIP, -16, -22, -60, -69, -77 kb from TSS) of the same compound?
**A.** clearly enriched

**Q.** And the “VDR binding to RANKL regulatory regions (D5)” value ([1]; agent alone)?
**A.** induced the binding of the VDR

**Q.** What about the “RXR binding to the D5 region of the human RANKL gene” value [2] of the same compound?
**A.** also induced to bind

**Q.** And the “VDR binding to the D5 region of the human RANKL gene” value [2]?
**A.** induced
